Read-outs that look alike come from different tables or passages of the source.
Columns and labels:
Assay type in all cases: in vivo
Thrips tabaci = Thrips tabaci (onion thrips) sunflower leaf disc test; conditions: foliar, 144 h
Method: Thrips tabaci (Onion Thrips):
(§1) Sunflower leaf discs were placed on agar in 24-well microtiter plates and sprayed with aqueous test solutions prepared from 10′000 ppm DMSO stock solutions. After drying the leaf discs were infested with a thrips population of mixed ages. The samples were assessed for mortality 6 days after infestation.

Tetranychus urticae = Tetranychus urticae (two-spotted spider mite) bean leaf disc test; conditions: foliar, 192 h
Method: Tetranychus urticae (Two-Spotted Spider Mite):
as §1, with “Bean” for “Sunflower”, “discs” for “discs were placed”, “were” for “and”, “mite” for “thrips”, “on mixed population (mobile stages) 8” for “6”

Spodoptera littoralis = Spodoptera littoralis (Egyptian cotton leaf worm) cotton leaf disc test; conditions: foliar, 72 h, read-out: control (at least one of mortality, anti-feedant effect, and growth inhibition)
In short: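 Cotton leaf discs on agar were sprayed with aqueous dilutions of 10′000 ppm DMSO stocks, dried and infested with five L1 larvae. Mortality, anti-feedant effect and growth inhibition were scored against untreated samples 3 days after infestation. Control = any of these higher than untreated.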

Plutella xylostella = Plutella xylostella (diamond back moth) artificial diet test; conditions: 120 h, read-out: effect in at least one of the two categories (mortality or growth inhibition)
In short: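 Artificial diet treated with aqueous compound solutions made from DMSO stocks, dried, then infested with L2 larvae (10 to 15 per well). Mortality and growth inhibition scored versus untreated controls 5 days after infestation. Application rate 200 ppm.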

Myzus persicae = Myzus persicae (green peach aphid) sunflower leaf disc test; conditions: foliar, 144 h
Method: Myzus persicae (Green Peach Aphid):
Sunflower leaf discs were placed on agar in a 24-well microtiter plate and sprayed with test solutions at an application rate of 200 ppm. After drying, the leaf discs were infested with an aphid population of mixed ages. After an incubation period of 6 days after treatment, samples were checked for mortality. The following compounds gave at least 80% mortality of Myzus persicae: […]

Diabrotica Balteata = test: Diabrotica balteata (corn root worm) maize sprout test; conditions: 96 h, read-out: effect in at least one of the two categories (mortality or growth inhibition)
In short: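 Maize sprouts on agar were sprayed with aqueous test solutions made from 10′000 ppm DMSO stocks, dried, then infested with 6 to 10 L2 larvae per well. Mortality and growth inhibition versus untreated samples were assessed 4 days after infestation; application rate 200 ppm.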

[1] = application rate 200 ppm, sunflower leaf discs, population of mixed ages, 6 days after infestation, read-out: mortality
[2] = application rate 200 ppm, bean leaf discs, mixed population (mobile stages), 8 days after infestation, read-out: mortality
[3] = application rate 200 ppm, cotton leaf discs, L1 larvae, 3 days after infestation
[4] = application rate 200 ppm, artificial diet, L2 larvae, 5 days after infestation
[5] = application rate 200 ppm, sunflower leaf discs, population of mixed ages, 6 days after treatment, read-out: mortality
[6] = application rate 200 ppm, maize sprouts, L2 larvae, 4 days after infestation

Cc1cc(C2=NO[C@@](c3cc(Cl)c(Cl)c(Cl)c3)(C(F)(F)F)C2)ccc1C(=O)N(C=O)C1CC(Cl)=NO1 (stereo partly drawn) [Compound A010, N-(3-chloro-4,5-dihydroisoxazol-5-yl)-N-formyl-2-methyl-4-[(5S)-5-(3,4,5-trichlorophenyl)-5-(trifluoromethyl)-4H-isoxazol-3-yl]benzamide]
≥ 80%: mortality at 200 ppm (Thrips tabaci) | mortality at 200 ppm (Tetranychus urticae) | percent control (mortality, anti-feedant effect or growth inhibition) at 200 ppm (Spodoptera littoralis) | percent effect (mortality or growth inhibition) at 200 ppm (Plutella xylostella) | mortality at 200 ppm (Myzus persicae) | percent effect (mortality or growth inhibition) at 200 ppm (Diabrotica Balteata)

COCC1=NOC(NC(=O)c2ccc(C3=NO[C@@](c4cc(Cl)c(F)c(Cl)c4)(C(F)(F)F)C3)cc2C)C1 (stereo partly drawn) [Compound A090]
≥ 80%: mortality at 200 ppm (Thrips tabaci) | mortality at 200 ppm (Tetranychus urticae) | percent control (mortality, anti-feedant effect or growth inhibition) at 200 ppm (Spodoptera littoralis) | percent effect (mortality or growth inhibition) at 200 ppm (Plutella xylostella) | mortality at 200 ppm (Myzus persicae) | percent effect (mortality or growth inhibition) at 200 ppm (Diabrotica Balteata)

COC1=NOC(NC(=O)c2ccc(C3=NO[C@@](c4cc(Br)cc(C(F)(F)F)c4)(C(F)(F)F)C3)cc2C)C1 (stereo partly drawn) [Compound A044]
≥ 80%: mortality at 200 ppm (Thrips tabaci; [1]) | mortality at 200 ppm (Tetranychus urticae; [2]) | percent control (mortality, anti-feedant effect or growth inhibition) at 200 ppm (Spodoptera littoralis; [3]) | percent effect (mortality or growth inhibition) at 200 ppm (Plutella xylostella; [4]) | mortality at 200 ppm (Myzus persicae; [5]) | percent effect (mortality or growth inhibition) at 200 ppm (Diabrotica Balteata; [6])

CC(=O)C1=NOC(NC(=O)c2ccc(C3=NO[C@@](c4cc(Cl)c(F)c(Cl)c4)(C(F)(F)F)C3)cc2C)C1 (stereo partly drawn) [Compound A015, N-(3-acetyl-4,5-dihydroisoxazol-5-yl)-4-[(5S)-5-(3,5-dichloro-4-fluoro-phenyl)-5-(trifluoromethyl)-4H-isoxazol-3-yl]-2-methyl-benzamide]
≥ 80%: mortality at 200 ppm (Thrips tabaci) | mortality at 200 ppm (Tetranychus urticae) | percent control (mortality, anti-feedant effect or growth inhibition) at 200 ppm (Spodoptera littoralis) | percent effect (mortality or growth inhibition) at 200 ppm (Plutella xylostella) | mortality at 200 ppm (Myzus persicae) | percent effect (mortality or growth inhibition) at 200 ppm (Diabrotica Balteata)

CC(=O)C1=NOC(N(C=O)C(=O)c2ccc(C3=NO[C@@](c4cc(Cl)c(F)c(Cl)c4)(C(F)(F)F)C3)cc2C)C1 (stereo partly drawn) [Compound A014, N-(3-acetyl-4,5-dihydroisoxazol-5-yl)-4-[(5S)-5-(3,5-dichloro-4-fluoro-phenyl)-5-(trifluoromethyl)-4H-isoxazol-3-yl]-N-formyl-2-methyl-benzamide]
≥ 80%: mortality at 200 ppm (Thrips tabaci) | mortality at 200 ppm (Tetranychus urticae) | percent control (mortality, anti-feedant effect or growth inhibition) at 200 ppm (Spodoptera littoralis) | percent effect (mortality or growth inhibition) at 200 ppm (Plutella xylostella) | mortality at 200 ppm (Myzus persicae) | percent effect (mortality or growth inhibition) at 200 ppm (Diabrotica Balteata)

Cc1cc(C2=NO[C@@](c3cc(Cl)c(F)c(Cl)c3)(C(F)(F)F)C2)ccc1C(=O)NC1CC(OC/C=C/C(F)(F)F)=NO1 (stereo partly drawn) [Compound A084, 4-[(5S)-5-(3,5-dichloro-4-fluoro-phenyl)-5-(trifluoromethyl)-4H-isoxazol-3-yl]-2-methyl-N-[3-[(E)-4,4,4-trifluorobut-2-enoxy]-4,5-dihydroisoxazol-5-yl]benzamide]
≥ 80%: mortality at 200 ppm (Thrips tabaci) | mortality at 200 ppm (Tetranychus urticae) | percent control (mortality, anti-feedant effect or growth inhibition) at 200 ppm (Spodoptera littoralis) | percent effect (mortality or growth inhibition) at 200 ppm (Plutella xylostella) | mortality at 200 ppm (Myzus persicae) | percent effect (mortality or growth inhibition) at 200 ppm (Diabrotica Balteata)

CO/N=C(\C)COC1=NOC(NC(=O)c2ccc(C3=NO[C@@](c4cc(Cl)c(Cl)c(Cl)c4)(C(F)(F)F)C3)cc2C)C1 (stereo partly drawn) [Compound A116, N-[3-[(2E)-2-methoxyiminopropoxy]-4,5-dihydroisoxazol-5-yl]-2-methyl-4-[(5S)-5-(3,4,5-trichlorophenyl)-5-(trifluoromethyl)-4H-isoxazol-3-yl]benzamide]
≥ 80%: mortality at 200 ppm (Thrips tabaci) | mortality at 200 ppm (Tetranychus urticae) | percent control (mortality, anti-feedant effect or growth inhibition) at 200 ppm (Spodoptera littoralis) | percent effect (mortality or growth inhibition) at 200 ppm (Plutella xylostella) | mortality at 200 ppm (Myzus persicae) | percent effect (mortality or growth inhibition) at 200 ppm (Diabrotica Balteata)

COCCOC1=NOC(NC(=O)c2ccc(C3=NO[C@@](c4cc(Cl)c(F)c(Cl)c4)(C(F)(F)F)C3)cc2C)C1 (stereo partly drawn) [Compound A076]
≥ 80%: mortality at 200 ppm (Thrips tabaci) | mortality at 200 ppm (Tetranychus urticae) | percent control (mortality, anti-feedant effect or growth inhibition) at 200 ppm (Spodoptera littoralis) | percent effect (mortality or growth inhibition) at 200 ppm (Plutella xylostella) | mortality at 200 ppm (Myzus persicae) | percent effect (mortality or growth inhibition) at 200 ppm (Diabrotica Balteata)

COC1=NOC(NC(=O)c2ccc(C3=NO[C@@](c4cccc(C(F)(F)F)c4)(C(F)(F)F)C3)cc2C)C1 (stereo partly drawn) [Compound A057]
≥ 80%: mortality at 200 ppm (Thrips tabaci; [1]) | mortality at 200 ppm (Tetranychus urticae; [2]) | percent control (mortality, anti-feedant effect or growth inhibition) at 200 ppm (Spodoptera littoralis; [3]) | percent effect (mortality or growth inhibition) at 200 ppm (Plutella xylostella; [4]) | mortality at 200 ppm (Myzus persicae; [5]) | percent effect (mortality or growth inhibition) at 200 ppm (Diabrotica Balteata; [6])

Cc1cc(C2=NO[C@@](c3cc(Cl)c(F)c(Cl)c3)(C(F)(F)F)C2)ccc1C(=O)NC1CC(Br)=NO1 (stereo partly drawn) [Compound A001, N-(3-bromo-4,5-dihydroisoxazol-5-yl)-4-[(5S)-5-(3,5-dichloro-4-fluoro-phenyl)-5-(trifluoromethyl)-4H-isoxazol-3-yl]-2-methyl-benzamide]
≥ 80%: mortality at 200 ppm (Thrips tabaci) | mortality at 200 ppm (Tetranychus urticae) | percent control (mortality, anti-feedant effect or growth inhibition) at 200 ppm (Spodoptera littoralis) | percent effect (mortality or growth inhibition) at 200 ppm (Plutella xylostella) | mortality at 200 ppm (Myzus persicae) | percent effect (mortality or growth inhibition) at 200 ppm (Diabrotica Balteata)

Cc1cc(C2=NO[C@@](c3cc(Cl)c(F)c(Cl)c3)(C(F)(F)F)C2)ccc1C(=O)N(C=O)C1CC(Cl)=NO1 (stereo partly drawn) [Compound A011, N-(3-chloro-4,5-dihydroisoxazol-5-yl)-4-[(5S)-5-(3,5-dichloro-4-fluoro-phenyl)-5-(trifluoromethyl)-4H-isoxazol-3-yl]-N-formyl-2-methyl-benzamide]
≥ 80%: mortality at 200 ppm (Thrips tabaci) | mortality at 200 ppm (Tetranychus urticae) | percent control (mortality, anti-feedant effect or growth inhibition) at 200 ppm (Spodoptera littoralis) | percent effect (mortality or growth inhibition) at 200 ppm (Plutella xylostella) | mortality at 200 ppm (Myzus persicae) | percent effect (mortality or growth inhibition) at 200 ppm (Diabrotica Balteata)

Cc1cc(C2=NO[C@@](c3cc(Cl)c(F)c(Cl)c3)(C(F)(F)F)C2)ccc1C(=O)NC1CC(OCC2CC2)=NO1 (stereo partly drawn) [Compound A083]
≥ 80%: mortality at 200 ppm (Thrips tabaci) | mortality at 200 ppm (Tetranychus urticae) | percent control (mortality, anti-feedant effect or growth inhibition) at 200 ppm (Spodoptera littoralis) | percent effect (mortality or growth inhibition) at 200 ppm (Plutella xylostella) | mortality at 200 ppm (Myzus persicae) | percent effect (mortality or growth inhibition) at 200 ppm (Diabrotica Balteata)

CC1=NOC(NC(=O)c2ccc(C3=NO[C@@](c4cc(Br)cc(C(F)(F)F)c4)(C(F)(F)F)C3)cc2C)C1 (stereo partly drawn) [Compound A029, 4-[(5S)-5-[3-bromo-5-(trifluoromethyl)phenyl]-5-(trifluoromethyl)-4H-isoxazol-3-yl]-2-methyl-N-(3-methyl-4,5-dihydroisoxazol-5-yl)benzamide]
≥ 80%: mortality at 200 ppm (Thrips tabaci; [1]) | mortality at 200 ppm (Tetranychus urticae; [2]) | percent control (mortality, anti-feedant effect or growth inhibition) at 200 ppm (Spodoptera littoralis; [3]) | percent effect (mortality or growth inhibition) at 200 ppm (Plutella xylostella; [4]) | mortality at 200 ppm (Myzus persicae; [5]) | percent effect (mortality or growth inhibition) at 200 ppm (Diabrotica Balteata; [6])

COC1=NOC(NC(=O)c2ccc(C3=NO[C@@](c4cc(Cl)cc(Cl)c4)(C(F)(F)F)C3)cc2C)C1 (stereo partly drawn) [Compound A054]
≥ 80%: mortality at 200 ppm (Thrips tabaci) | mortality at 200 ppm (Tetranychus urticae) | percent control (mortality, anti-feedant effect or growth inhibition) at 200 ppm (Spodoptera littoralis) | percent effect (mortality or growth inhibition) at 200 ppm (Plutella xylostella) | mortality at 200 ppm (Myzus persicae) | percent effect (mortality or growth inhibition) at 200 ppm (Diabrotica Balteata)

From patent US10499642B2, “Isoxazoline-substituted benzamides and analogues as insecticides” (SYNGENTA PARTICIPATIONS AG, priority 2015, dated 2019)
